Laboratory results as given in patent publication US10696615B2, “Prenylated hydroxystilbenes” (The University of Sydney, priority 2011, dated 2020).

Columns and labels:
[1] = tested on: UACC-257; assay: NCI in vitro cancer screen, Melanoma; format: cell-based, human; conditions: UACC-257
[2] = tested on: M14; assay: NCI in vitro cancer screen, Melanoma; format: cell-based, human; conditions: M14
[3] = tested on: SK-MEL-2; assay: NCI in vitro cancer screen, Melanoma; format: cell-based, human; conditions: SK-MEL-2
[4] = tested on: EKVX; assay: NCI in vitro cancer screen, Non-Small Cell Lung Cancer; format: cell-based, human
[5] = tested on: SK-MEL-28; assay: NCI in vitro cancer screen, Melanoma; format: cell-based, human; conditions: SK-MEL-28
[6] = tested on: MCF7; assay: NCI in vitro cancer screen, Breast Cancer; format: cell-based, human; conditions: MCF7
[7] = tested on: HCT-15; assay: NCI in vitro cancer screen, Colon Cancer; format: cell-based, human; conditions: HCT-15
[8] = tested on: T-47D; assay: NCI in vitro cancer screen, Breast Cancer; format: cell-based, human
[9] = tested on: UO-31; assay: NCI in vitro cancer screen, Renal Cancer; format: cell-based, human; conditions: UO-31
[10] = tested on: KM12; assay: NCI in vitro cancer screen, Colon Cancer; format: cell-based, human; conditions: KM12
[11] = tested on: HOP-92; assay: NCI in vitro cancer screen, Non-Small Cell Lung Cancer; format: cell-based, human; conditions: HOP-92
[12] = tested on: LOX IMVI; assay: NCI in vitro cancer screen, Melanoma; format: cell-based, human
[13] = tested on: SF-539; assay: NCI in vitro cancer screen, CNS Cancer; format: cell-based; conditions: SF-539
[14] = tested on: SF-268; assay: NCI in vitro cancer screen, CNS Cancer; format: cell-based, human; conditions: SF-268
[15] = tested on: OVCAR-8; assay: NCI in vitro cancer screen, Ovarian Cancer; format: cell-based, human; conditions: OVCAR-8
[16] = tested on: HT29; assay: NCI in vitro cancer screen, Colon Cancer; format: cell-based, human; conditions: HT29
[17] = tested on: NCI-H322M; assay: NCI in vitro cancer screen, Non-Small Cell Lung Cancer; format: cell-based, human
[18] = tested on: COLO 205; assay: NCI in vitro cancer screen, Colon Cancer; format: cell-based, human; conditions: COLO 205
[19] = tested on: RXF-393; assay: NCI in vitro cancer screen, Renal Cancer; format: cell-based, human; conditions: RXF-393
[20] = tested on: HL-60 (TB); assay: NCI in vitro cancer screen, Leukemia; format: cell-based, human; conditions: HL-60 (TB)
[21] = tested on: MDA-MB-231 (MDA-MB-231/ATCC); assay: NCI in vitro cancer screen, Breast Cancer; format: cell-based, human; conditions: MDA-MB-231
[22] = tested on: A498; assay: NCI in vitro cancer screen, Renal Cancer; format: cell-based, human; conditions: A498
[23] = tested on: A549/ATCC; assay: NCI in vitro cancer screen, Non-Small Cell Lung Cancer; format: cell-based, human
[24] = tested on: MOLT-4; assay: NCI in vitro cancer screen, Leukemia; format: cell-based, human; conditions: MOLT-4
[25] = tested on: OVCAR-5; assay: NCI in vitro cancer screen, Ovarian Cancer; format: cell-based, human; conditions: OVCAR-5
[26] = tested on: RPMI-8226; assay: NCI in vitro cancer screen, Leukemia; format: cell-based, human; conditions: RPMI-8226
[27] = tested on: NCI-H522; assay: NCI in vitro cancer screen, Non-Small Cell Lung Cancer; format: cell-based, human; conditions: NCI-H522
[28] = tested on: OVCAR-4; assay: NCI in vitro cancer screen, Ovarian Cancer; format: cell-based, human; conditions: OVCAR-4
[29] = tested on: SNB-75; assay: NCI in vitro cancer screen, CNS Cancer; format: cell-based, human; conditions: SNB-75
[30] = tested on: PC-3; assay: NCI in vitro cancer screen, Prostate Cancer; format: cell-based, human; conditions: PC-3
[31] = tested on: SN12C; assay: NCI in vitro cancer screen, Renal Cancer; format: cell-based, human
[32] = Homo sapiens, read-out: LC50 (the source's name)

COc1cc(/C=C/c2cc(O)cc(OCC=C(C)C)c2)ccc1O [USYDS2, (E)-3-(3-methyl-2-butenyloxy)-4′,5-dihydroxy-3′-methoxystilbene]
GI50 ([1]; Homo sapiens): 7.89 µM | CC50 [1, 32]: 46 µM | TGI [1]: 20.6 µM | GI50 ([2]; Homo sapiens): 0.53 µM | CC50 [2, 32]: 49.4 µM | TGI [2]: 15.4 µM | GI50 ([3]; Homo sapiens): 1.25 µM | LC50 ([3]; Homo sapiens): 41.6 µM | TGI [3]: 9.59 µM | TGI [4]: 25.2 µM | GI50 ([4]; Homo sapiens): 9.04 µM | CC50 [4, 32]: 66.4 µM | GI50 ([5]; Homo sapiens): 5.04 µM | LC50 ([5]; Homo sapiens): 46.7 µM | TGI [5]: 19.4 µM | GI50 ([6]; Homo sapiens): 1.24 µM | CC50 [6, 32]: 41 µM | TGI [6]: 15.0 µM | TGI [7]: 17.8 µM | GI50 ([7]; Homo sapiens): 0.76 µM | CC50 [7, 32]: 97.3 µM | TGI [8]: 33.6 µM | GI50 ([8]; Homo sapiens, T47D): 5.66 µM | CC50 ([8]; Homo sapiens, T47D, read-out: LC50 (the source's name)): > 100 µM | GI50 ([9]; Homo sapiens): 2.6 µM | CC50 [9, 32]: 48.9 µM | TGI [9]: 16.9 µM | GI50 ([10]; Homo sapiens): 2.09 µM | CC50 [10, 32]: 45 µM | TGI [10]: 11.7 µM | TGI [11]: 21.1 µM | GI50 ([11]; Homo sapiens): 3.98 µM | CC50 [11, 32]: 60.1 µM | TGI [12]: 19.4 µM | GI50 ([12]; Homo sapiens): 1.56 µM | CC50 [12, 32]: > 100 µM | GI50 ([13]; Homo sapiens): 1.92 µM | CC50 [13, 32]: 50.2 µM | TGI [13]: 13.8 µM | GI50 ([14]; Homo sapiens): 4.5 µM | CC50 [14, 32]: 51.6 µM | TGI [14]: 19.2 µM | GI50 ([15]; Homo sapiens): 2.8 µM | CC50 [15, 32]: 44.6 µM | TGI [15]: 14.8 µM | TGI [16]: 32.2 µM | GI50 ([16]; Homo sapiens, HT-29): 17.4 µM | CC50 ([16]; Homo sapiens, HT-29, read-out: LC50 (the source's name)): 59.6 µM | TGI [17]: 22.7 µM | GI50 ([17]; Homo sapiens): 9.64 µM | LC50 (50% lethal concentration) ([17]; Homo sapiens): 52.3 µM | TGI [18]: 31.7 µM | GI50 ([18]; Homo sapiens): 17.3 µM | CC50 [18, 32]: 57.9 µM | GI50 ([19]; Homo sapiens): 1.35 µM | CC50 [19, 32]: 23.6 µM | TGI [19]: 5.46 µM | TGI [20]: 9.77 µM | GI50 ([20]; Homo sapiens): 1.34 µM | CC50 [20, 32]: > 100 µM | GI50 ([21]; Homo sapiens): 0.25 µM | CC50 [21, 32]: 15.7 µM | TGI [21]: 2.10 µM | TGI [22]: 23.8 µM | GI50 ([22]; Homo sapiens): 10.3 µM | CC50 [22, 32]: 55.2 µM | TGI [23]: 13.0 µM | GI50 ([23]; Homo sapiens): 3.28 µM | CC50 [23, 32]: 42.1 µM | GI50 ([24]; Homo sapiens): 4.16 µM | CC50 [24, 32]: > 100 µM | TGI [24]: 28.3 µM | GI50 ([25]; Homo sapiens): 10.1 µM | CC50 [25, 32]: 60.9 µM | TGI [25]: 24.8 µM | GI50 ([26]; Homo sapiens): 4.32 µM | CC50 [26, 32]: > 100 µM | TGI [26]: 52.8 µM | GI50 ([27]; Homo sapiens): 1.14 µM | CC50 [27, 32]: 14.7 µM | TGI [27]: 3.57 µM | GI50 ([28]; Homo sapiens): 5.34 µM | CC50 [28, 32]: > 100 µM | TGI [28]: 28.0 µM | GI50 ([29]; Homo sapiens): 2.14 µM | CC50 [29, 32]: 55.8 µM | TGI [29]: 10.3 µM | GI50 ([30]; Homo sapiens): 3.84 µM | CC50 [30, 32]: 65.8 µM | TGI [30]: 18.7 µM | TGI [31]: 18.8 µM | GI50 ([31]; Homo sapiens): 4.02 µM | CC50 [31, 32]: 60.2 µM
